Earlier results on 1 molecule are cited in US20230113836A1, “NEW CONJUGATES OF PEPTIDES AND POLYSACCHARIDE” (ENLITISA (SHANGHAI) PHARMACEUTICAL CO., LTD., priority 2019, published 2023).

Molecules are shown by their SMILES.

The data set deals with Drosophila model organism. The following applies: Foureman et al., 1994.

Turning to `C(CCOCC1CO1)COCC1CO1` (stereo not shown) [BDDE, 1,4-butanediol diglycidyl ether], the Mutagenicity entry is on record as “mutagenic”.
